# Laboratory results from patent publication US20260209175A1, “PHARMACEUTICALLY ACCEPTABLE 5-METHOXY-N,N-DIMETHYL[…] AND COMPOSITIONS THEREOF” (priority 2022, published 2026).
# Legend:
# Type in all cases: physicochemical
# [1] = Dissolution rate in simulated nasal fluid (UV-fiber optic dissolution apparatus); settings: 5 mg in 5 mL simulated nasal fluid, 37° C., 150 RPM
# Procedure: The dissolution rate was determined using a method comprising the use of a UV-fiber optic-based dissolution apparatus (one such suitable device is the Rainbow® Dynamic Dissolution Monitor by Pion Inc) and simulated nasal fluid. The simulated nasal fluid comprises 7.45 g/L NaCl, 1.29 g/L KCl, 0.32 g/L CaCl2×2H2O and deionised water.
# The dissolution apparatus was set up with a 2 mm probe to measure the dissolution rate. 5 mg of the salt form was transferred into 5 mL of simulated nasal fluid, heated to a constant temperature of 37° C. and stirred at 150 RPM using a crossed stirrer bar. Measurements were taken at 3 s intervals for 130 intervals followed by 60 measurements taken at 10 s intervals for a total time of 16 minutes and 30 s. Detection of dissolution is by UV absorbance.
# [2] = Polymorphism screen of benzoate salt (thermal cycling, evaporations, antisolvent additions, cooling), XRPD
# Procedure: To render the amorphous and thus remove seeds of the supplied pattern 1 the supplied material was lyophilised in an attempt to render it amorphous. To 2.396 g of the supplied benzoate salt lot 800674000 dioxane (55 ml) and water (5 ml) was added. The mixture was agitated gently and warmed to aid dissolution.
# Twenty five of the lyophilised samples were treated with solvent and thermally cycled between ambient and 40° C. with four hours spent under each condition. After three days and solids were isolated by centrifuge filtration and analysed by XRPD.
# Twelve samples of the lyophilised material were treated with a minimal volume (ca 0.5 ml) of warm solvent, syringe filtered through a 0.22 micrometre filter and added to a clean HPLC vial and allowed to evaporate at RT. The solvents used and XRPD results following evaporation are detailed in the Table below:
# For antisolvent additions thirteen samples of the lyophilised material were dissolved in a small amount of hot solvent (^~0.5 ml). […] A large excess of antisolvent was then added, the vials sealed. After storage at RT overnight, and samples where no solid had been produced were first cooled to 4° C. for ^~24 hrs, and again if no solid was produced, they were cooled to −18° C. Any solids were isolated by centrifuge filtration and analysed by XRPD.
# For the cooling experiments twelve samples of the lyophilised material were dissolved in a small amount of hot solvent (^~0.5 ml) and syringe filtered through a 0.22 μm filter into a clean HPLC vial. Samples were allowed to cool to RT, and if no solid was produced to 4° C. and then to −18° C. Solids were isolated by centrifuge filtration and analysed by XRPD.
# [3] = Solubility assessments in four different media; settings: 50 mg per vial; for Observation: 0.5 ml media at 37° C.
# Procedure: Solubility assessments of 5-MeO-DMT oxalate, hydrobromide fumarate and benzoate were performed in four different media: […]
smiles,measurement,setting,value
"COc1ccc2[nH]cc(CCN(C)C)c2c1.O=C(O)c1ccccc1 [benzoate salt, 5-MeO-DMT benzoate]",dissolution rate,[1],almost instantaneous
same,XRPD Results,"[2]; antisolvent addition, solvent DMF, anti solvent PhMe, Cooled −18 C., DJP2202-012-07",No solid
same,XRPD Results,"[2]; antisolvent addition, solvent EtOH, anti solvent Heptane, Some solid at RT, DJP2202-012-04",Pattern 1
same,XRPD Results,"[2]; antisolvent addition, solvent EtOH, anti solvent TBME, Cooled −18 C., DJP2202-012-03",No solid
same,XRPD Results,"[2]; antisolvent addition, solvent IPAC, anti solvent TBME, Cooled −18 C., DJP2202-012-08",No solid
same,XRPD Results,"[2]; antisolvent addition, solvent MEK, anti solvent Heptane, Some solid at RT, DJP2202-012-10",Pattern 2
same,XRPD Results,"[2]; antisolvent addition, solvent MEK, anti solvent TBME, Cooled −18 C., DJP2202-012-09",No solid
same,XRPD Results,"[2]; antisolvent addition, solvent MeCN, anti solvent PhMe, Some solid at RT, DJP2202-012-12",Pattern 4
same,XRPD Results,"[2]; antisolvent addition, solvent MeCN, anti solvent TBME, Cooled −18 C., DJP2202-012-11",No solid
same,XRPD Results,"[2]; antisolvent addition, solvent MeOH, anti solvent TBME, Cooled −18 C., DJP2202-012-02",No solid
same,XRPD Results,"[2]; antisolvent addition, solvent MeOH/water Aw 0.2, anti solvent MeOH, Cooled −18 C., DJP2202-012-01",No solid
same,XRPD Results,"[2]; antisolvent addition, solvent THF, anti solvent TBME, Cooled −18 C., DJP2202-012-05",No solid
same,XRPD Results,"[2]; antisolvent addition, solvent dioxane, anti solvent TBME, Cooled −18 C., DJP2202-012-06",No solid
same,XRPD Results,"[2]; cooling experiment, EtOH, Solid at RT, DJP2202-013-05",Pattern 4
same,XRPD Results,"[2]; cooling experiment, IPA, Solid at RT, DJP2202-013-06",Pattern 4
same,XRPD Results,"[2]; cooling experiment, IPAC, Solid at RT, DJP2202-013-10",Pattern 4
same,XRPD Results,"[2]; cooling experiment, MEK, Solid at RT, DJP2202-013-11",Pattern 2
same,XRPD Results,"[2]; cooling experiment, MeCN, Solid at RT, DJP2202-013-12",Pattern 4
same,XRPD Results,"[2]; cooling experiment, MeOH/water Aw 0.2, Cooled −18 C., DJP2202-013-01",Pattern 4
same,XRPD Results,"[2]; cooling experiment, MeOH/water Aw 0.6, Cooled −18 C., DJP2202-013-02",no solids
same,XRPD Results,"[2]; cooling experiment, MeOH, Cooled −18 C., DJP2202-013-04",no solids
same,XRPD Results,"[2]; cooling experiment, THF, Solid at RT, DJP2202-013-07",Pattern 4
same,XRPD Results,"[2]; cooling experiment, Water, Cooled −18 C., DJP2202-013-03",Pattern 4
same,XRPD Results,"[2]; cooling experiment, chlorobenzene, Solid at RT, DJP2202-013-09",mix #4 #2
same,XRPD Results,"[2]; cooling experiment, dioxane, Solid at RT, DJP2202-013-08",Pattern 3
same,XRPD Result,"[2]; evaporation at RT of lyophilised material from 1-PrOH, DJP2202-010-02",Oil
same,XRPD Result,"[2]; evaporation at RT of lyophilised material from EtOH, DJP2202-010-05",Oil
same,XRPD Result,"[2]; evaporation at RT of lyophilised material from IPA, DJP2202-010-06",Pattern 4
same,XRPD Result,"[2]; evaporation at RT of lyophilised material from IPAC, DJP2202-010-10",Pattern 2
same,XRPD Result,"[2]; evaporation at RT of lyophilised material from MEK, DJP2202-010-11",Pattern 4
same,XRPD Result,"[2]; evaporation at RT of lyophilised material from MIBK, DJP2202-010-04",Oil
same,XRPD Result,"[2]; evaporation at RT of lyophilised material from MeCN, DJP2202-010-12",Pattern 4
same,XRPD Result,"[2]; evaporation at RT of lyophilised material from THF, DJP2202-010-07",Pattern 4
same,XRPD Result,"[2]; evaporation at RT of lyophilised material from chlorobenzene, DJP2202-010-09",Pattern 4
same,XRPD Result,"[2]; evaporation at RT of lyophilised material from dioxane, DJP2202-010-08",Pattern 4
same,XRPD Result,"[2]; thermal cycle ambient/40° C., 3 days, 1,4-Dioxane 200 μl, isolated after thermal cycle, DJP2202-006-01",Pattern 3
same,XRPD Result,"[2]; thermal cycle ambient/40° C., 3 days, 1-Propanol 200 μl, isolated after thermal cycle, DJP2202-006-02",Pattern 4
same,XRPD Result,"[2]; thermal cycle ambient/40° C., 3 days, 2-Butanol 200 μl, isolated after thermal cycle, DJP2202-006-03",Pattern 4
same,XRPD Result,"[2]; thermal cycle ambient/40° C., 3 days, 2-Me-1-PrOH 200 μl, isolated after thermal cycle, DJP2202-006-21",Pattern 4
same,XRPD Result,"[2]; thermal cycle ambient/40° C., 3 days, 2-Methyltetrahydrofuran 200 μl, isolated after thermal cycle, DJP2202-006-05",Pattern 4
same,XRPD Result,"[2]; thermal cycle ambient/40° C., 3 days, 2-Propanol 200 μl, isolated after thermal cycle, DJP2202-006-06",Pattern 4
same,XRPD Result,"[2]; thermal cycle ambient/40° C., 3 days, Acetone 200 μl, isolated after thermal cycle, DJP2202-006-07",Pattern 4
same,XRPD Result,"[2]; thermal cycle ambient/40° C., 3 days, Acetonitrile 200 μl, isolated after thermal cycle, DJP2202-006-08",Pattern 4
same,XRPD Result,"[2]; thermal cycle ambient/40° C., 3 days, Anisole 200 μl, isolated after thermal cycle, DJP2202-006-09",Pattern 4
same,XRPD Result,"[2]; thermal cycle ambient/40° C., 3 days, Chlorobenzene 200 μl, isolated after thermal cycle, DJP2202-006-10",Pattern 4 +
same,XRPD Result,"[2]; thermal cycle ambient/40° C., 3 days, Ethanol 150 μl, isolated after thermal cycle, DJP2202-006-11",Pattern 4
same,XRPD Result,"[2]; thermal cycle ambient/40° C., 3 days, Ethyl acetate 200 μl, isolated after thermal cycle, DJP2202-006-12",Pattern 4
same,XRPD Result,"[2]; thermal cycle ambient/40° C., 3 days, Formamide 150 μl, isolated after thermal cycle, DJP2202-006-17",Pattern 4
same,XRPD Result,"[2]; thermal cycle ambient/40° C., 3 days, Isopropyl acetate 200 μl, isolated after thermal cycle, DJP2202-006-13",Pattern 4
same,XRPD Result,"[2]; thermal cycle ambient/40° C., 3 days, MeOH/water 360/640 Calc Aw 0.821, 200 μl, clear solution, evaporated to solid, DJP2202-006-25",Pattern 1
same,XRPD Result,"[2]; thermal cycle ambient/40° C., 3 days, MeOH/water 693/307 Calc Aw 0.599, 200 μl, clear solution, evaporated to solid, DJP2202-006-24",Pattern 1
same,XRPD Result,"[2]; thermal cycle ambient/40° C., 3 days, Methanol 200 μl, clear solution, evaporated to solid, DJP2202-006-14",Pattern 1
same,XRPD Result,"[2]; thermal cycle ambient/40° C., 3 days, Methylethyl ketone 200 μl, isolated after thermal cycle, DJP2202-006-16",Pattern 4
same,XRPD Result,"[2]; thermal cycle ambient/40° C., 3 days, Propyl acetate 200 μl, isolated after thermal cycle, DJP2202-006-15",Pattern 4
same,XRPD Result,"[2]; thermal cycle ambient/40° C., 3 days, Tetrahydrofuran 200 μl, isolated after thermal cycle, DJP2202-006-22",Pattern 4
same,XRPD Result,"[2]; thermal cycle ambient/40° C., 3 days, iso-Propyl acetate 200 μl, isolated after thermal cycle, DJP2202-006-20",Pattern 4
same,pH after addition of 0.5 ml media at 37° C.,[3]; SNF,6.77
same,Observation,[3]; SNF,Clear solution
same,pH after addition of 0.5 ml media at 37° C.,[3]; pH 1.2 buffer,5.28
same,Observation,[3]; pH 1.2 buffer,Clear solution
same,pH after addition of 0.5 ml media at 37° C.,[3]; pH 4.5 buffer,5.22
same,Observation,[3]; pH 4.5 buffer,Clear solution
same,pH after addition of 0.5 ml media at 37° C.,[3]; pH 6.8 buffer,6.82
same,Observation,[3]; pH 6.8 buffer,Clear solution
